Entries after “also recorded” stand apart in the source; their conditions may differ.
Experiments:
murine pkd1-null cells = settings: cited from earlier work
Pkd1−/− embryonic mice = Pkd1−/− embryonic mice with ADPKD; cited from earlier work
mTOR pathway = assay: Inhibition of mTOR pathway in EGF stimulated ADPKD cells by Western blot; format: cell-based, human
Experimental: (§1) Human ADPKD cells were plated at a density of 1×10^5 cells per well in medium containing 1% FBS in a 6-well plate. Cells were serum-starved for 24 hours and treated with 25 ng/ml EGF to stimulate cell proliferation, then treated with increasing concentrations of KU-174. As a control for inhibition of the mTOR pathway, ADPKD cells were stimulated by EGF and treated with Rapamycin or LY294002. After 24 or 48 hours, cytoplasmic protein extracts were prepared by lysing cells in ice-cold lysis buffer (10 mM Tris-Cl pH 7.5, 150 mM NaCl, 2 mM EDTA pH 8.0, 1% Triton X-100, 0.5% NP-40, 25 mM glycerol 2-phosphate, 1 mM sodium orthovanadate, 1 mM phenylmethylsulfonyl fluoride, and 0.1% v/v Sigma protease inhibitor cocktail). Nuclei and other Triton-insoluble components were removed by high speed centrifugation. Protein concentration was measured using the Pierce BCA assay kit. 20 μg total protein was boiled with SDS sample buffer and fractionated on 7.5, 10 or 12.5% SDS-PAGE gels. Proteins were transferred to PVDF membranes and non-specific binding blocked with 5% powdered milk in TBS-T (10 mM Tris-Cl pH 7.5, 150 mM NaCl, and 0.1% Tween 20) for 1 h at room temperature. Blocked membranes were incubated with primary antibodies in 5% powdered milk or 5% BSA (for phospho-proteins) in TBS-T overnight at 4° C. Membranes were then washed three times with TBS-T and incubated with alkaline phosphatase-conjugated secondary antibodies in 5% milk in TBS-T for 30 min at room temperature. The membranes were washed three times with TBS-T, and protein bands were visualized using the CDP-star detection reagent (GE healthcare). Intensity was detected and quantitatively analyzed by the Fluor-S MAX multi-imager system (Bio-Rad).
Human ADPKD cells were plated at a density of 1×10^5 cells per well in medium containing 1% FBS in a 6-well plate. Cells were serum-starved for 24 hours and treated with 25 ng/ml EGF to stimulate cell proliferation, then treated with increasing concentrations of KU-174. As a control for inhibition of the mTOR pathway, ADPKD cells were stimulated by EGF and treated with Rapamycin or LY294002, (an inhibitor of phosphoinositide-3-kinases, PI3Ks). After 24 or 48 hours, cells were lysed and 20 μg total cell lysate analyzed by Western blotting. Blots were probed with antibodies against p-Akt (S473), Akt, p-TSC2 (S939), TSC2, p-mTOR (S2448), mTOR, p-S6K (T412 and T389; phospho-p70 S6 Kinase phosphorylated at T389 or T412) and S6K (p70 S6 kinase; p70S6K1). […] In the 1 μM KU-174 treated cell lysates, p-Akt was decreased by 64%, p-mTOR by 56%, and p-S6K isoforms p85 and p70 by 75% compared with control EGF treated cells and normalized with respect to the corresponding total protein (n=3). There was no change in p-TSC2 levels. […] The figures represent results from independent experiments using primary human ADPKD cells from three different kidneys.

[1] = system: Human ADPKD cyst-lining epithelial cells; assay: Cell proliferation assay (Promega Cell Titer 96 MTT); format: cell-based; settings: 0.1, 0.5, 1 uM KU-174 for 72 h
Experimental: Primary cultures of human ADPKD cyst-lining epithelial cells were established as described in Yamaguchi, T., et al., Calcium restores a normal proliferation phenotype in human polycystic kidney disease epithelial cells. J Am Soc Nephrol, 2006. 17(1): p. 178-87. Cystic tissue from ADPKD kidneys were minced and digested overnight in DMEM/F12 (1:1) mixture that contained 220 IU/ml type IV collagenase and 100 IU/ml penicillin G and 0.1 mg/ml streptomycin (P/S) (13). Collagenase digestion was stopped by the addition of FBS. […]
The novobiocin analog KU-174 was studied to determine the effect on cAMP and EGF-stimulated proliferation of ADPKD cyst-lining epithelial cells. Cell proliferation was determined by the Promega Cell Titer 96 MTT assay method as described in Yamaguchi, T., et al., Calcium restores a normal proliferation phenotype in human polycystic kidney disease epithelial cells. […] After 72 hours of treatment, cell proliferation was measured by adding the MTT assay reagent and stopping the reaction four hours later. Absorbance was read on a spectrophotometer at 570 nm. Optical densities were measured using a spectrophotometer. In each group, results were expressed as a percentage of the control group (not treated with KU-174).

[2] = system: Hsp90 client proteins CFTR, C-Raf, cdk4, ErbB2 and Akt; assay: Hsp90 client protein levels in EGF stimulated human ADPKD cells by Western blot; format: cell-based
Experimental: as §1
Proteins from 20 μg total cell lysate were analyzed by Western blotting. Blots were probed with antibodies against Hsp90 and client proteins CFTR, C-Raf, cdk4, ErbB2 and Akt. GAPDH served as the internal control.

human ADPKD cells = assay: Microcyst assay in collagen gel matrix; format: cell-based
Experimental: Microcyst assay was performed as described previously by Yamaguchi, T., et al., Calcium restores a normal proliferation phenotype in human polycystic kidney disease epithelial cells. J Am Soc Nephrol, 2006. 17(1): p. 178-87. Primary cultures of human ADPKD cells (4×10^3 cells/well) were dispersed within an ice-cold type I collagen matrix (Vitrogen; Collagen Corp., Palo Alto, Calif.) in wells of a 96-well culture plate. Warming the plate to 37° C. caused polymerization of the collagen, trapping the cells within the gel. A defined medium (DMEM/F12 with ITS, 5×10^−8M hydrocortisone, and 5×10^−5 M triiodothyronine) supplemented with 5 μM forskolin and 5 ng/ml EGF was added for 3 days to initiate cyst growth. Forskolin (FSK) is a small molecule agonist of adenylyl cyclase, the enzyme that makes cAMP. Thus, FSK treatment of cells increases the levels of intracellular cAMP. Fresh media containing EGF and forskolin plus 1 μM or 5 μM KU-174 were added for an additional 5-7 days. […] Gels containing cysts were fixed in 1% formaldehyde and cyst diameters were measured using a morphometric analysis system. Outer diameters of cross-sectional images of spherical cysts with distinct lumens were measured using an inverted microscope with a digital camera and video analysis software. The total surface area (SA) of the cysts within each well was calculated from the individual cyst diameters (cysts≧100 μm). KU-174 inhibits microcyst formation by ADPKD cells in a collagen gel matrix.

[3] = system: Pkd1+/− mouse metanephric kidneys; assay: Metanephric organ culture; settings: embryonic day 15.5 kidneys, 100 μM cAMP, 10 μM KU-174, four days
Text: Pkd1^m1Bei mice were obtained from the Mutant Mouse Regional Resource Center (University of North Carolina, Chapel Hill, N.C.) and were stabilized onto a C57BL/6 background (>10 backcrosses). This mouse has a point mutation (T to G at 9248 bp) that causes an M to R substitution that affects the first transmembrane domain of polycystin-1 as described by Herron, B. J., et al., Efficient generation and mapping of recessive developmental mutations using ENU mutagenesis. Nat Genet, 2002. 30(2): p. 185-9.
Mouse metanephric kidneys were cultured according to methods described in Magenheimer, B. S., et al., Early embryonic renal tubules of wild-type and polycystic kidney disease kidneys respond to cAMP stimulation with cystic fibrosis transmembrane conductance regulator/Na(+),K(+),2Cl(−) Co-transporter-dependent cystic dilation. J Am Soc Nephrol, 2006. 17(12): p. 3424-37. Metanephroi were dissected from Pkd1+/− embryonic mice and placed on transparent Falcon […] cell culture inserts. […] Upon culturing (day 0) and approximately 24 h later (day 1) and each day after (days 2 to 4), kidneys were photographed using a 2× or 4× objective, and the images were acquired and analyzed using the analySIS imaging program (Soft Imaging System, Munster, Germany). […]

ERK 1/2 = assay: Inhibition of p-ERK in EGF stimulated ADPKD cells by Western blot; format: cell-based, human; settings: for decrease in P-Erk (phosphorylation of ERK 1/2): EGF-stimulated ADPKD cells
Experimental: as §1

[4] = 48 h, 1 μM KU-174, compared to control EGF treated cells

In the case of `CC(C)[C@]12O[C@H]1[C@@H]1O[C@]13[C@]1(O[C@H]1C[C@H]1C4=C(CC[C@@]13C)C(=O)OC4)[C@@H]2O` [Triptolide], the cell growth (murine pkd1-null cells) is given as “cause cell growth arrest” and the cyst formation (Pkd1−/− embryonic mice) is given as “inhibit cyst formation”.

For `COc1cccc(-c2cc(C(=O)Nc3cc4ccc(O[C@@H]5OC(C)(C)[C@H](OC)[C@@H](O)[C@H]5O)c(OC)c4oc3=O)ccc2OC)c1` [KU-174, N-(7-((2S,3R,4S,5R)-3,4-dihydroxy-5-methoxy-6,6-dimethyltetrahydro-2H-pyran-2-yloxy)-8-methoxy-2-oxo-2H-chromen-3-yl)-3′,6-dimethoxybiphenyl-3-carboxamide], the p-S6K (mTOR pathway; 24 h, 1 μM KU-174) was “slight decrease”, the “change in phosphoproteins (P-mTOR, P-Akt, P-TSC2, P-S6K)” value (mTOR pathway; 24 h of treatment, 50 nM to 1 μM KU-174, EGF-stimulated ADPKD cells) was “no change” and the “decrease in P-Akt (S473)” value (mTOR pathway; [4]) was 64%. For the same molecule, the “decrease in P-S6K (isoforms p85 and p70)” value (mTOR pathway; [4]) was 75%, the “decrease in P-mTOR (S2448)” value (mTOR pathway; [4]) was 56% and the decreasing the phosphoproteins (mTOR pathway; 48 h, both 0.5 and 1 μM KU-174) was “effective”. The “P-TSC2 (S939) levels” value (mTOR pathway; EGF-stimulated ADPKD cells, KU-174 up to 1 μM, 48 h) was “no change”, the “total Akt levels” value (mTOR pathway; at the concentrations examined (up to 1 μM KU-174)) was “did not appear to decrease” and the “proliferation of EGF-stimulated ADPKD cyst-lining epithelial cells (MTT assay)” value ([1]; 25 ng/ml EGF) was “dose-dependent decrease; also recorded: significantly inhibited”. For the same molecule, the “proliferation of cAMP-stimulated ADPKD cyst-lining epithelial cells (MTT assay)” value ([1]; 100 μM cAMP) was “dose-dependent decrease; also recorded: significantly inhibited”, the “total levels of C-Raf” value ([2]; 24 h, 1 μM KU-174) was “decreased” and the “total levels of CFTR” value ([2]; 24 h, 1 μM KU-174) was “decreased”. The “all the client proteins examined (CFTR, C-Raf, cdk4, ErbB2)” value ([2]; 48 h, both 0.5 and 1 μM KU-174) was “effective in decreasing”, the “levels of the Hsp90 client proteins CFTR, ErbB2, c-Raf and Cdk4” value ([2]; dose and time-dependent manner, ADPKD cells) was “decreases” and the “inhibition in cyst growth (total cyst surface area per well)” value (human ADPKD cells; 1 μM KU-174, EGF and forskolin, p<0.01) was “significant inhibition”. For the same molecule, the “inhibition of cyst-formation induced by EGF and forskolin” value (human ADPKD cells; 1 μM KU-174, n=6) was “more than 3 fold”, the cyst formation (human ADPKD cells; 5 μM KU-174, EGF and forskolin, p<0.01) was “completely eliminated” and the “microcyst formation by ADPKD cells in a collagen gel matrix” value (human ADPKD cells; EGF and forskolin, 1 μM or 5 μM KU-174) was “dose-dependent inhibition; also recorded: reduces; also recorded: inhibits”. For the same molecule, the “cyst burden / cyst formation in cAMP-treated metanephric kidneys” value [3] was “reduces the cyst burden; also recorded: reduction in cyst burden; also recorded: reduced cyst formation”, the “decrease in P-Erk (phosphorylation of ERK 1/2)” value (ERK 1/2; 0.5 μM KU-174, 48 h) was 70% and the “total Erk levels” value (ERK 1/2; 0.5 μM and 1 μM KU-174, EGF-stimulated ADPKD cells) was “remained virtually unchanged”. For the same molecule, the “decrease in P-Erk (phosphorylation of ERK 1/2)” value (ERK 1/2; 1 μM KU-174, 48 h) was 80% and the “inhibition of p-ERK” value (ERK 1/2; increasing concentrations of KU-174, EGF-stimulated ADPKD cells) was “dose-dependent inhibition”.

From patent publication US20110082098A1, “NOVOBIOCIN ANALOGUES AND TREATMENT OF POLYCYSTIC KIDNEY DISEASE” (UNIVERSITY OF KANSAS, priority 2009, published 2011)
